According to US9144239B2, “Macrocyclic picolinamides as fungicides” (DOW AGROSCIENCES LLC, priority 2012, dated 2015):
Read-outs that look alike come from different tables or passages of the source.

Key:
Format in all cases: in vivo
[1] = system: Puccinia triticina; synonym: Puccinia recondita f. sp. tritici; experiment: Fungicidal activity: wheat brown rust (PUCCRT), wheat seedlings
Description: Technical grades of materials were dissolved in acetone, which were then mixed with nine volumes of water containing 110 ppm Triton X-100. The fungicide solutions were applied onto wheat seedlings using an automated booth sprayer to run-off. All sprayed plants were allowed to air dry prior to further handling. Wheat plants (variety Yuma) were grown from seed in a greenhouse in 50% mineral soil/50% soil-less Metro mix until the first leaf was fully emerged, with 7-10 seedlings per pot. These plants were inoculated with an aqueous spore suspension of Septoria tritici either prior to or after fungicide treatments. After inoculation the plants were kept in 100% relative humidity (one day in a dark dew chamber followed by two to three days in a lighted dew chamber at 20° C.) to permit spores to germinate and infect the leaf. The plants were then transferred to a greenhouse set at 20° C. for disease to develop. When disease symptoms were fully expressed on the 1st leaves of untreated plants, infection levels were assessed on a scale of 0 to 100 percent disease severity. Percent disease control was calculated using the ratio of disease severity on treated plants relative to untreated plants. Evaluation of Fungicidal Activity: Wheat Brown Rust (Puccinia […]; Synonym: Puccinia recondita f. Sp. Tritici; Bayer Code PUCCRT) Wheat plants (variety Yuma) were grown from seed in a greenhouse in 50% mineral soil/50% soil-less Metro mix until the first leaf was fully emerged, with 7-10 seedlings per pot. These plants were inoculated with an aqueous spore suspension of Puccinia triticina either prior to or after fungicide treatments. After inoculation the plants were kept in a dark dew room at 22° C. with 100% relative humidity overnight to permit spores to germinate and infect the leaf. The plants were then transferred to a greenhouse set at 24° C. for disease to develop. Fungicide formulation, application and disease assessment followed the procedures as described in the Example A.

[2] = system: Puccinia triticina; synonym: Puccinia recondita f. sp. tritici; experiment: Fungicide mobility (dropline mobility test): wheat brown rust (PUCCRT); settings: 1 ug/leaf
Description: Evaluation of Fungicide Mobility: Wheat Brown Rust (Puccinia triticina; Synonym: Puccinia recondita f. sp. tritici; Bayer Code PUCCRT) “Yuma” wheat seedlings were used in the test. One mg of compound was dissolved in 9 μl of EC blank (emulsifiable concentrate) and 500 μl of acetone. Acetone was then evaporated overnight by leaving the vial open in a fume hood. Two milliliters of water containing 110 ppm Triton X-100 was added to each vial to prepare application solutions. A 2 μl drop of formulated material was applied to a marked line on the adaxial surface 5 cm from the leaf tip of the primary leaves. The primary leaves were kept in a horizontal position. Each treatment had 6 replicates. Plants were inoculated with PUCCRT 1-day after (1DPM) or 3-day prior to (3DCM) compound applications. When rust was fully expressed on primary leaves on control plants, the zone of treated leaves that was disease-free in the acropetal direction was measured with a ruler and converted to percent of the distance from marked line to leaf tip.

[3] = system: Mycosphaerella graminicola; anamorph: Septoria tritici; experiment: Fungicidal activity: leaf blotch of wheat (SEPTTR), wheat seedlings; settings: Zymoseptoria tritici
Description: Evaluation of Fungicidal Activity: Leaf Blotch of Wheat (Mycosphaerella Graminicola; Anamorph: Septoria tritici; Bayer Code […]) Technical grades of materials were dissolved in acetone, which were then mixed with nine volumes of water containing 110 ppm Triton X-100. The fungicide solutions were applied onto wheat seedlings using an automated booth sprayer to run-off. All sprayed plants were allowed to air dry prior to further handling. Wheat plants (variety Yuma) were grown from seed in a greenhouse in 50% mineral soil/50% soil-less Metro mix until the first leaf was fully emerged, with 7-10 seedlings per pot. These plants were inoculated with an aqueous spore suspension of Septoria tritici either prior to or after fungicide treatments. After inoculation the plants were kept in 100% relative humidity (one day in a dark dew chamber followed by two to three days in a lighted dew chamber at 20° C.) to permit spores to germinate and infect the leaf. The plants were then transferred to a greenhouse set at 20° C. for disease to develop. When disease symptoms were fully expressed on the 1st leaves of untreated plants, infection levels were assessed on a scale of 0 to 100 percent disease severity. Percent disease control was calculated using the ratio of disease severity on treated plants relative to untreated plants.

[4] = 24 h, 100 ppm, 1 Day Protectant, wheat, read-out: Disease Control PUCCRT 1DP
[5] = 72 h, 100 ppm, 3 Day Curative, wheat, read-out: Disease Control PUCCRT 3DC
[6] = 24 h, 1 Day Protectant Mobility, read-out: Dropline Mobility Test PUCCRT 1DPM
[7] = 72 h, 3 Day Curative Mobility, read-out: Dropline Mobility Test PUCCRT 3DCM
[8] = 24 h, 100 ppm, 1 Day Protectant, wheat, read-out: Disease Control SEPTTR 1DP
[9] = 72 h, 100 ppm, 3 Day Curative, wheat, read-out: Disease Control SEPTTR 3DC

Compound | pest or weed control at 100 ppm [1, 4] | pest or weed control at 100 ppm [1, 5] | pest or weed control at 1 µg/leaf [2, 6] | pest or weed control at 1 µg/leaf [2, 7] | pest or weed control at 100 ppm [3, 8] | pest or weed control at 100 ppm [3, 9] | pest or weed control at 100 ppm ([1]; 24 h, read-out: Disease Control PUCCRT 1DP) | pest or weed control at 100 ppm ([1]; 72 h, read-out: Disease Control PUCCRT 3DC) | pest or weed control at 100 ppm ([3]; 24 h, read-out: Disease Control SEPTTR 1DP) | pest or weed control at 100 ppm ([3]; 72 h, read-out: Disease Control SEPTTR 3DC)
COCCC(=O)Oc1c(OC)ccnc1C(=O)N[C@H]1COC[C@H](OCC(C)C)[C@@H](OCC(C)C)[C@H](C)OC1=O [Compound 237, 2-(((3S,7S,8S,9S)-7,8-diisobutoxy-9-methyl-2-oxo-1,5-dioxonan-3-yl)carbamoyl)-4-methoxypyridin-3-yl 3-methoxypropanoate] | 80 to 100% | 80 to 100% | 80 to 100% | 80 to 100% | 80 to 100% | 80 to 100% |  |  |  | 
CCCCO[C@H]1COC[C@H](NC(=O)c2nccc(OC)c2OCOC(C)=O)C(=O)O[C@@H](C)[C@@H]1OC(=O)c1ccccc1 [Compound 69] | 80 to 100% | 80 to 100% | 0 to 80% | 0 to 80% | 80 to 100% | 80 to 100% |  |  |  | 
CCCO[C@H]1[C@H](C)OC(=O)[C@@H](NC(=O)c2nccc(OC)c2OCOC(C)=O)COC[C@@H]1OCCC [Compound 61] | 80 to 100% | 80 to 100% | 80 to 100% | 0 to 80% | 80 to 100% | 80 to 100% |  |  |  | 
CCCCO[C@H]1COC[C@H](NC(=O)c2nccc(OC)c2O)C(=O)O[C@@H](C)[C@@H]1OC(=O)c1ccccc1 [Compound 66] | 80 to 100% | 80 to 100% | 0 to 80% | 0 to 80% | 80 to 100% | 0 to 80% |  |  |  | 
COc1ccnc(C(=O)N[C@H]2CO[C@@H](C)[C@H](OCC(C)C)[C@@H](OCC(C)C)[C@H](C)OC2=O)c1O [Compound 26] | 80 to 100% | 80 to 100% | 0 to 80% |  | 80 to 100% | 0 to 80% |  |  |  | 
COc1ccnc(C(=O)N[C@H]2COC[C@H](Oc3ccccc3)[C@@H](Oc3ccccc3)[C@H](C)OC2=O)c1OC(C)=O [Compound 236] | 80 to 100% | 80 to 100% | 0 to 80% |  | 80 to 100% | 80 to 100% |  |  |  | 
COc1ccnc(C(=O)N[C@H]2COC[C@H](Oc3ccccc3)[C@@H](Oc3ccccc3)[C@H](C)OC2=O)c1OCOC(=O)C(C)C [Compound 234] | 80 to 100% | 80 to 100% | 80 to 100% |  | 80 to 100% | 80 to 100% |  |  |  | 
COc1ccnc(C(=O)N[C@H]2COC[C@H](OCC(C)C)[C@@H](OCC(C)C)[C@H](C)OC2=O)c1OC(C)=O [Compound 238] | 80 to 100% | 80 to 100% | 80 to 100% | 80 to 100% | 80 to 100% | 80 to 100% |  |  |  | 
COc1ccnc(C(=O)N[C@H]2COC[C@@H](OCc3ccccc3)[C@H](OCc3ccccc3)[C@H](C)OC2=O)c1O [Compound 38] | 80 to 100% | 0 to 80% |  |  | 0 to 80% | 0 to 80% |  |  |  | 
COc1ccnc(C(=O)N[C@@H]2COC[C@H](OCC(C)C)[C@@H](OCC(C)C)COC2=O)c1OCOC(C)=O [Compound 14] | 80 to 100% | 0 to 80% |  |  | 0 to 80% |  |  |  |  | 
COc1ccnc(C(=O)N[C@H]2COC[C@H](OC3CCCC3)[C@@H](Oc3ccccc3)[C@H](C)OC2=O)c1O [Compound 204] | 80 to 100% | 80 to 100% |  |  | 80 to 100% | 80 to 100% |  |  |  | 
COc1ccnc(C(=O)N[C@@H]2COC[C@H](OCC(C)C)[C@@H](OCC(C)C)[C@@H](COCC(C)C)OC2=O)c1O [Compound 16] | 0 to 80% | 0 to 80% |  |  | 0 to 80% |  |  |  |  | 
COc1ccnc(C(=O)N[C@H]2COC[C@H](Oc3ccc(F)cc3)[C@@H](OCC(C)C)[C@H](C)OC2=O)c1O [Compound 207] | 80 to 100% | 80 to 100% |  |  | 80 to 100% | 80 to 100% |  |  |  | 
COc1ccc(O[C@H]2[C@H](C)OC(=O)[C@@H](NC(=O)c3nccc(OC)c3OCOC(C)=O)COC[C@@H]2Oc2ccc(OC)cc2)cc1 [Compound 220] | 80 to 100% | 80 to 100% |  |  | 80 to 100% | 80 to 100% |  |  |  | 
CCOCC(=O)OCOc1c(OC)ccnc1C(=O)N[C@H]1COC[C@H](Oc2ccc(F)cc2)[C@@H](Oc2ccc(F)cc2)[C@H](C)OC1=O [Compound 230] | 80 to 100% | 80 to 100% |  |  | 80 to 100% | 80 to 100% |  |  |  | 
CCOCC(=O)OCOc1c(OC)ccnc1C(=O)N[C@H]1COC[C@H](Oc2ccc(OC)cc2)[C@@H](Oc2ccc(OC)cc2)[C@H](C)OC1=O [Compound 219] | 80 to 100% | 80 to 100% |  |  | 80 to 100% | 0 to 80% |  |  |  | 
COc1ccc(O[C@H]2[C@H](C)OC(=O)[C@@H](NC(=O)c3nccc(OC)c3O)COC[C@@H]2Oc2ccc(OC)cc2)cc1 [Compound 201] | 80 to 100% |  |  |  | 80 to 100% | 0 to 80% |  |  |  | 
COc1ccnc(C(=O)N[C@@H]2COC[C@H](OCc3ccccc3)[C@@H](OCc3ccccc3)[C@@H](C)OC2=O)c1OCOC(C)=O [Compound 31] | 0 to 80% | 0 to 80% |  |  | 0 to 80% | 0 to 80% |  |  |  | 
CC[C@@H]1OC(=O)[C@@H](NC(=O)c2nccc(OC)c2OCOC(C)=O)COC[C@H](OCC(C)C)[C@H]1OCC(C)C [Compound 23] | 80 to 100% | 80 to 100% |  |  | 80 to 100% | 80 to 100% |  |  |  | 
COc1ccnc(C(=O)N[C@H]2COC[C@H](Oc3ccc(C)cc3)[C@@H](Oc3ccc(C)cc3)[C@H](C)OC2=O)c1O [Compound 206] | 80 to 100% | 80 to 100% |  |  | 80 to 100% | 80 to 100% |  |  |  | 
CCCCO[C@H]1COC[C@H](NC(=O)c2nccc(OC)c2O)C(=O)O[C@@H](C)[C@@H]1OC(=O)C(C)C [Compound 46, (3S,6S,7S,8S)-8-butoxy-3-(3-hydroxy-4-methoxypicolinamido)-6-methyl-4-oxo-1,5-dioxonan-7-yl isobutyrate] |  |  |  |  |  |  | 80 to 100% | 80 to 100% | 80 to 100% | 80 to 100%
COc1ccnc(C(=O)N[C@H]2COC[C@H](OCC(C)C)[C@@H](OCC(C)C)[C@@H](COCC(C)C)OC2=O)c1OCOC(C)=O [Compound 17] | 0 to 80% | 0 to 80% |  |  | 0 to 80% |  |  |  |  | 
